In patent publication US20250195511A1, “INDAZOLE DERIVATIVES USEFUL AS INHIBITORS OF NOD-LIKE RECEPTOR PROTEIN 3” (Merck Sharp & Dohme LLC, priority 2023, published 2025):

These molecules were tested on NLRP3 inflammasome (assay: NLRP3 inflammasome activation: ASC-SPECK formation in gramicidin-stimulated THP-1 cells). Settings: Homo sapiens, THP-1, inhibition of ASC SPECK formation; PMA-treated human monocytic THP-1 cells, compound 1 h before 12.5 μg/ml gramicidin, 3-hour treatment.
Assay type: cell-based
How it was run: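 Undifferentiated human THP-1 cells primed overnight with 10 ng/ml PMA, then given compounds 1 h before 12.5 μg/ml gramicidin for 3 h at 37° C in RPMI with 0.01% BSA. Fixed cells immunostained for ASC with DRAQ5 nuclear counterstain; DRAQ5-positive cells with ASC specks counted by high-content imaging; EC50 from curve fitting.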
`Cc1cc(C(F)(F)F)cc(O)c1-c1cnc2cn([C@H]3COCC[C@@H]3O)nc2n1` [Example 35, (3S,4S)-3-[6-[2-hydroxy-6-methyl-4-(trifluoromethyl)phenyl]pyrazolo[3,4-b]pyrazin-2-yl]tetrahydropyran-4-ol] showed an EC50 of 37 nM.
Molecule `Cc1cc(C(F)(F)F)cc(O)c1-c1cnc2cn([C@H]3C[C@H](C#N)C3)nc2n1` [Example 36, (1R,3R)-3-(6-(2-hydroxy-6-methyl-4-(trifluoromethyl)phenyl)-2H-pyrazolo[3,4-b]pyrazin-2-yl)cyclobutane-1-carbonitrile] has an EC50 of 18 nM.
With `COCC12CC(n3cc4ncc(-c5c(C)cc(C(F)(F)F)cc5O)nc4n3)(C1)C2` [Example 37, 2-[2-[3-(methoxymethyl)-1-bicyclo[1.1.1]pentanyl]pyrazolo[3,4-b]pyrazin-6-yl]-3-methyl-5-(trifluoromethyl)phenol] the EC50 was 220 nM.
Molecule `COC12CC(n3cc4ncc(-c5c(C)cc(C(F)(F)F)cc5O)nc4n3)(C1)C2` [Example 38, 2-[2-(3-methoxy-1-bicyclo[1.1.1]pentanyl)pyrazolo[3,4-b]pyrazin-6-yl]-3-methyl-5-(trifluoromethyl)phenol] has an EC50 of 141 nM.
`Cc1cc(C(F)(F)F)cc(O)c1-c1cnc2cn(C34CC(C(F)F)(C3)C4)nc2n1` [Example 39, 2-[2-[3-(difluoromethyl)-1-bicyclo[1.1.1]pentanyl]pyrazolo[3,4-b]pyrazin-6-yl]-3-methyl-5-(trifluoromethyl)phenol] showed an EC50 of 90 nM.
`Cc1cc(C(F)(F)F)cc(O)c1-c1cnc2cn([C@H]3CC[C@H](C#N)CC3)nc2n1` [Example 40, (1R,4R)-4-(6-(2-hydroxy-6-methyl-4-(trifluoromethyl)phenyl)-2H-pyrazolo[3,4-b]pyrazin-2-yl)cyclohexane-1-carbonitrile] was tested, and the EC50 was 81 nM.
Molecule `Cc1cc(C(F)(F)F)cc(O)c1-c1cnc2cn(C34COC(CO)(C3)C4)nc2n1` [Example 41, 2-[2-[1-(hydroxymethyl)-2-oxabicyclo[2.1.1]hexan-4-yl]pyrazolo[3,4-b]pyrazin-6-yl]-3-methyl-5-(trifluoromethyl)phenol] has an EC50 of 78 nM.
`Cc1cc(C(F)(F)F)cc(O)c1-c1cnc2cn(C34CCC(C3)C4)nc2n1` [Example 42, 2-[2-(1-bicyclo[2.1.1]hexanyl)pyrazolo[3,4-b]pyrazin-6-yl]-3-methyl-5-(trifluoromethyl)phenol] gave an EC50 of 70 nM.
For `Cc1cc(C(F)(F)F)cc(O)c1-c1cnc2cn(C34CC(CO)(C3)C4)nc2n1` [Example 43, 2-[2-[3-(hydroxymethyl)-1-bicyclo[1.1.1]pentanyl]pyrazolo[3,4-b]pyrazin-6-yl]-3-methyl-5-(trifluoromethyl)phenol], the EC50 was 26 nM.
With `Cc1cc(C(F)(F)F)cc(O)c1-c1cnc2cn([C@H]3CC[C@@H](O)CC3)nc2n1` [Example 44, 2-(2-((1S,4S)-4-hydroxycyclohexyl)-2H-pyrazolo[3,4-b]pyrazin-6-yl)-3-methyl-5-(trifluoromethyl)phenol] the EC50 was 121 nM.
`Cc1cc(C(F)(F)F)cc(O)c1-c1cnc2cn(C3CC4CCC(C3)O4)nc2n1` (centres unmarked) [Example 45, 3-methyl-2-[2-(8-oxabicyclo[3.2.1]octan-3-yl)pyrazolo[3,4-b]pyrazin-6-yl]-5-(trifluoromethyl)phenol] was tested, and the EC50 was 70 nM.
`Cc1cc(C(F)(F)F)cc(O)c1-c1cnc2cn(C34CC(CC#N)(C3)C4)nc2n1` [Example 46, 2-[3-[6-[2-hydroxy-6-methyl-4-(trifluoromethyl)phenyl]pyrazolo[3,4-b]pyrazin-2-yl]-1-bicyclo[1.1.1]pentanyl]acetonitrile] gave an EC50 of 213 nM.
Work on `Cc1cc(C(F)(F)F)cc(O)c1-c1cnc2cn(C34CCC(C#N)(C3)C4)nc2n1` [Example 47, 4-[6-[2-hydroxy-6-methyl-4-(trifluoromethyl)phenyl]pyrazolo[3,4-b]pyrazin-2-yl]bicyclo[2.1.1]hexane-1-carbonitrile] yielded an EC50 of 61 nM.
For `Cc1cc(C(F)(F)F)cc(O)c1-c1cnc2cn(C34CC(F)(C3)C4)nc2n1` [Example 48, 2-[2-(3-fluoro-1-bicyclo[1.1.1]pentanyl)pyrazolo[3,4-b]pyrazin-6-yl]-3-methyl-5-(trifluoromethyl)phenol], the EC50 was 65 nM.
